Measured values from PubChem BioAssay (NCI).
Several values for one entry are separate records, joined by “and”; a condition that tells them apart may be missing. Equal entries are not always repeated.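 Cultured in 96-well plates, cells were exposed to test compound for 48 hours across five concentrations. Here, GI50 denotes the concentration required for 50% inhibition of growth. TGI is the concentration that stops growth completely.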

Tested on: HOP-92 NSCLC
Assay: NCI-60 cell line screen, 48 h

Structure (SMILES) | GI50 | TGI
C=CCCCCC/C=C\[C@@H](O)C#CC#C/C=C/CO | > 100000 nM | > 100 µM
Cc1cc(C(=O)Nc2ccc3cc(CN4CCOCC4)ccc3n2)c(C)n1-c1ccccc1 | 2150 nM | 40.3 µM
CCCCCCCCCCCCCCCC(=O)OCC(C[As](=O)(O)O)OC(=O)CCCCCCCCCCCCCCC (stereo not given) |  | > 100 µM
COc1ccc(C(=O)c2cc(C)c(OC)c(C)c2)cc1OC(=O)CCl | 12400 nM | > 96.1 µM
NC(=O)c1cc(Cl)ccc1NC(=O)/C=C/c1ccccc1 | 9880 nM | > 43 µM
O=C1/C(=C(/c2ccccc2)N2CCOCC2)Cc2ccccc21 | 1240 nM | 3.01 µM
CC1=CC(=O)C=CC1=O | 16700 nM | 33.4 µM
CCCC(CCC)NCC(O)c1cc(-c2ccc(C(F)(F)F)cc2)nc(C(F)(F)F)c1 (stereo not given) | 1430 nM | 2.87 µM
Cc1cc(C)c(NC(=O)c2sc3nc4c(cc3c2N)C(=O)CCC4)c(C)c1 | 114 nM | 32.1 µM
CN(C)CCNc1ccc(CO)c2oc3ccc(O)cc3c(=O)c12 |  | 33.4 µM
Cc1ccc(NC(=O)c2cccc(C(C)(C)C#N)c2)cc1Nc1ccc2ncn(C)c(=O)c2c1 | 287 nM | 4.98 µM
Cc1cc2ncnn2cc1Nc1ncc2c(n1)n(C1CCOCC1)c(=O)n2C | 2010 nM | 18.8 µM
COc1cc(Cc2nccc3cc(OC)c(OC)cc23)c(C(C)=O)cc1OC | 99300 nM and > 750000 nM | 267 µM and > 750 µM

Tested on: ACHN renal
Assay: NCI-60 cell line screen, 48 h

Structure (SMILES) | GI50 | TGI
CC1(C)C(=O)/C(=C\c2cccnc2)C[C@]2(C)[C@H]3CC[C@@H]4[C@H]5[C@H](C(=O)/C=C/c6cccnc6)CC[C@]5(C(=O)O)CC[C@@]4(C)[C@]3(C)CC[C@@H]12 | 1690 nM | 3.06 µM
COc1cc2ncnc(-n3ncc4cc(NC(=O)Nc5ccccc5)ccc43)c2cc1OC | 1630 nM | 11.1 µM
COc1ccc(C(=O)c2cc(OC)c(OC)c(OC)c2)cc1/C=C/C(=O)c1ccc(F)cc1 | 1680 nM | 3.23 µM
OCC1OC(n2cnc3c2NC=NC[C@H]3O)C(Cl)C1O (stereo not given in full) |  | > 100 µM
COc1ccc(C2=C(Cl)c3cc(OC)c(OC)cc3C2Cl)cc1 (stereo not given) |  | 30.6 µM
COc1ccc(-c2[nH]c3ccc(OC)cc3c2/C=C(\C#N)S(=O)(=O)c2ccccc2)cc1 | 1790 nM | > 100 µM
O=c1cc(NCC(O)CN2CCCC2)n(Cc2ccccc2)c(=O)n1Cc1ccccc1 (stereo not given) | > 100000 nM | > 100 µM
c1ccc(Sc2ccc(Cc3nc4cc5ccccc5cc4[nH]3)cc2)cc1 | 13200 nM | > 75.1 µM
CCc1nc2cc(F)c(/C=C/C(=O)NO)cc2c(=O)n1CCc1ccccc1 | 343 nM | 2.56 µM
C/C(=N\Nc1ccc(Cl)cn1)c1ccc2ccccc2n1 | 2490 nM | > 100 µM
CC1=C(/C=C/Cl)CC(Cl)C(C)(Cl)C1 (stereo not given) |  | > 100 µM
C=C1C(=O)O[C@H]2[C@H]1CC/C(COC(=O)NCCCCNC(=O)OC/C1=C/CC[C@@]3(C)O[C@H]3[C@H]3OC(=O)C(=C)[C@@H]3CC1)=C\CC[C@@]1(C)O[C@@H]21 | 3440 nM | 12.9 µM
COc1ccc(C[N+](C)(C)N)cc1OC | > 100000 nM | > 100 µM
NS(=O)(=O)c1ccc(-c2ccc3c(NC(=O)C4CC4)n[nH]c3c2)cc1 | > 25000 nM | > 25 µM
C=CCCCCC/C=C\[C@@H](O)C#CC#C/C=C/CO | > 100000 nM | > 100 µM
Cc1cc(C(=O)Nc2ccc3cc(CN4CCOCC4)ccc3n2)c(C)n1-c1ccccc1 | 2600 nM | 42.3 µM
CCCCCCCCCCCCCCCC(=O)OCC(C[As](=O)(O)O)OC(=O)CCCCCCCCCCCCCCC (stereo not given) |  | > 100 µM
COc1ccc(C(=O)c2cc(C)c(OC)c(C)c2)cc1OC(=O)CCl | < 10 nM | 77.5 µM
NC(=O)c1cc(Cl)ccc1NC(=O)/C=C/c1ccccc1 | 4750 nM | > 100 µM
O=C1/C(=C(/c2ccccc2)N2CCOCC2)Cc2ccccc21 | 1640 nM | 3.69 µM
